Source: ChEMBL document CHEMBL1132910, “SAR of 4-hydroxypiperidine and hydroxyalkyl substituted heterocycles as novel p38 map kinase inhibitors” (Bioorg Med Chem Lett, 2000)

Columns and labels:
[1] = biological target: Mitogen-activated protein kinase 14 (Mus musculus, UniProt P47811); assay: Inhibition of murine p38 alpha MAP kinase
[2] = biological target: T1, Prostaglandin G/H synthase 1 (Ovis aries, UniProt P05979); assay: Inhibition of Prostaglandin G/H synthase 1, COX-1
T1 sequence (P05979 whole entry): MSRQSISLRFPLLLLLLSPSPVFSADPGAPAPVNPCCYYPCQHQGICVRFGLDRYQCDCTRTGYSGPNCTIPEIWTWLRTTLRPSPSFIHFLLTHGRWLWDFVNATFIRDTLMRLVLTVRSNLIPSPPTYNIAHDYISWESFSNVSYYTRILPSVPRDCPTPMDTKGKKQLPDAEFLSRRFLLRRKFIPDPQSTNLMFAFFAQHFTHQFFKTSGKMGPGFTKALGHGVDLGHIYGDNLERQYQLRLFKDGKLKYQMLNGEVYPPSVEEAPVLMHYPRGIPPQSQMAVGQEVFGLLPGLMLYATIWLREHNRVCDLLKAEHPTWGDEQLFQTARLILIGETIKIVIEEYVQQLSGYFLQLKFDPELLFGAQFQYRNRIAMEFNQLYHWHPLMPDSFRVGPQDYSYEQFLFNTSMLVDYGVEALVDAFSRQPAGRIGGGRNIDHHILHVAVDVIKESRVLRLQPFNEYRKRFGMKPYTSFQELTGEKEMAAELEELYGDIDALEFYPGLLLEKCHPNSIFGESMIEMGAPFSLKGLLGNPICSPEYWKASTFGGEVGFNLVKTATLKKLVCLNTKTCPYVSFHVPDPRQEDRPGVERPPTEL

Mus musculus [3] = assay: (§1) Inhibition of LPS-induced TNF-alpha release in mice at 20 mg/kg; type: functional, organism-based; parameters: dose 20 mg/kg
Mus musculus [4] = assay: as §1; type: functional
[5] = Cmax value at a oral dose of […] mg/kg; type: ADME, organism-based; conditions: in vivo, 20 mg/kg
[6] = Bioavailability; type: ADME, organism-based; conditions: eutheria, in vivo
[7] = biological target: Epidermal growth factor receptor (Homo sapiens, UniProt P00533); assay: Inhibition of EGFR kinase
Epidermal growth factor receptor, sequence (P00533 whole entry): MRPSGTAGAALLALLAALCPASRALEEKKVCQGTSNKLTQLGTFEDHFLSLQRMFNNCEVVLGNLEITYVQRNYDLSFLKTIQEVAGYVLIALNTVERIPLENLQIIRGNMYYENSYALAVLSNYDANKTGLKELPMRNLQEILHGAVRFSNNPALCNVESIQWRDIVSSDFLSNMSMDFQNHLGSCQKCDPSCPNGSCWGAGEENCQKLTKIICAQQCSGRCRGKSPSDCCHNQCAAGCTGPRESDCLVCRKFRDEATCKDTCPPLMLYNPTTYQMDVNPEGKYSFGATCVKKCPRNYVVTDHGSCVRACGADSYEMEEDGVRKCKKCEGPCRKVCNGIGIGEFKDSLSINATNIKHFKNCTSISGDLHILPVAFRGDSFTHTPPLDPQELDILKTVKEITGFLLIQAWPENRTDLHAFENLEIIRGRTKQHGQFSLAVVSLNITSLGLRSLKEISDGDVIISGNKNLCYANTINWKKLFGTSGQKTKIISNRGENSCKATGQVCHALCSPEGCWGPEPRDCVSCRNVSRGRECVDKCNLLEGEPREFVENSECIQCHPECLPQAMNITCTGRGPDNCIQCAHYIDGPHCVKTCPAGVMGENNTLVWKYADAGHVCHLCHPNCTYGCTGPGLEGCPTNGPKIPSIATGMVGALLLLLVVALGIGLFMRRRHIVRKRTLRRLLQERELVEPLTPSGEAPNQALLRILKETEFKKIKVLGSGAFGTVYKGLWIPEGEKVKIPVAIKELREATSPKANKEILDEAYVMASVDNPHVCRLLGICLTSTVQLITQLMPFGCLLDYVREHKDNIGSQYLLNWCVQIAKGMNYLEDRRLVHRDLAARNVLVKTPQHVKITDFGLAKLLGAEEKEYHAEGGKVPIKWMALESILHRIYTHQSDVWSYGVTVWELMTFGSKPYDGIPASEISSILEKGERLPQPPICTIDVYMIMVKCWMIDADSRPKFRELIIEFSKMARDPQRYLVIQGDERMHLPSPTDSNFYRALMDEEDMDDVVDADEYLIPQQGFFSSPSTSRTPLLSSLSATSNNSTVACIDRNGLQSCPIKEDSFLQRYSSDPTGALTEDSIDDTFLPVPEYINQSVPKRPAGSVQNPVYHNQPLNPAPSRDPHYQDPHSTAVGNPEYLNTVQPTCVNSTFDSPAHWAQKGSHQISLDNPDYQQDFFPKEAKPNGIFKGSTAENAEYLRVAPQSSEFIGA

[8] = biological target: Mitogen-activated protein kinase 1 (Mus musculus, UniProt P63085); assay: Inhibition of ERK2 kinase
Mitogen-activated protein kinase 1, sequence (P63085 whole entry): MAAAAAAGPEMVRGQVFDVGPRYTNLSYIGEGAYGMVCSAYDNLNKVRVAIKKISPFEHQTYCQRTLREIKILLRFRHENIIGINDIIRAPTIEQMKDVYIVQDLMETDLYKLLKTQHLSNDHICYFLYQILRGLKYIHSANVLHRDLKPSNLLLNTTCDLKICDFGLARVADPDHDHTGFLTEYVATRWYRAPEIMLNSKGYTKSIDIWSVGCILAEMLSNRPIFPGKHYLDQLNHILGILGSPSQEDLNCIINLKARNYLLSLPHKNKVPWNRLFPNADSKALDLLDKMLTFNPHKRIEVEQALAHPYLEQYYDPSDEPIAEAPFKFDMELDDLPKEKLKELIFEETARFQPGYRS

[9] = biological target: Mitogen-activated protein kinase 9 (Homo sapiens, UniProt P45984); assay: Inhibition of JNK2 kinase
Mitogen-activated protein kinase 9, sequence (P45984 whole entry): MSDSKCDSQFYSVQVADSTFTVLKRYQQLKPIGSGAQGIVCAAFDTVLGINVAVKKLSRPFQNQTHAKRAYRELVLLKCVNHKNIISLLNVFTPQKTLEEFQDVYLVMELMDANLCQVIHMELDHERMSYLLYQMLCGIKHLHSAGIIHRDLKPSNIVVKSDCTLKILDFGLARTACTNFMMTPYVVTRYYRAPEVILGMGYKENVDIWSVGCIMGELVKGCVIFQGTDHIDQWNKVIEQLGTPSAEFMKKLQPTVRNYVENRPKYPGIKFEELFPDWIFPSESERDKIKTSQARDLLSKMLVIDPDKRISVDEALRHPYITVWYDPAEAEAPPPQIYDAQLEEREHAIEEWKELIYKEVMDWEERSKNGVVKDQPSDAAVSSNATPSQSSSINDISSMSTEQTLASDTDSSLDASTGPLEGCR

[10] = biological target: Mitogen-activated protein kinase 8 (Homo sapiens, UniProt P45983); assay: Inhibition of JNK1 kinase
Mitogen-activated protein kinase 8, sequence (P45983 whole entry): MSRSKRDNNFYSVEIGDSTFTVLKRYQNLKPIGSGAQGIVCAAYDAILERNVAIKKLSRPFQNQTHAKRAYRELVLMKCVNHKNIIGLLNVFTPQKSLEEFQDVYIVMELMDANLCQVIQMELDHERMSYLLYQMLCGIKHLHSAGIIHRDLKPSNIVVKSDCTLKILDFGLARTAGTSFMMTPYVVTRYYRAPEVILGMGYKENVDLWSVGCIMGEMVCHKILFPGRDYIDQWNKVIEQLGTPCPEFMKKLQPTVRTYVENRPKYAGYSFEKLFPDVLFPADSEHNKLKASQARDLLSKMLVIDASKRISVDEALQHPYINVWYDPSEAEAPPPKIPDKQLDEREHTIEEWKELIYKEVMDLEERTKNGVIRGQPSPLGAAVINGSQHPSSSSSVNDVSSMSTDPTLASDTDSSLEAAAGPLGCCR

[11] = biological target: T2, Dual specificity mitogen-activated protein kinase kinase 6 (Homo sapiens, UniProt P52564); assay: Inhibition of MKK6b kinase
T2 sequence (P52564 whole entry): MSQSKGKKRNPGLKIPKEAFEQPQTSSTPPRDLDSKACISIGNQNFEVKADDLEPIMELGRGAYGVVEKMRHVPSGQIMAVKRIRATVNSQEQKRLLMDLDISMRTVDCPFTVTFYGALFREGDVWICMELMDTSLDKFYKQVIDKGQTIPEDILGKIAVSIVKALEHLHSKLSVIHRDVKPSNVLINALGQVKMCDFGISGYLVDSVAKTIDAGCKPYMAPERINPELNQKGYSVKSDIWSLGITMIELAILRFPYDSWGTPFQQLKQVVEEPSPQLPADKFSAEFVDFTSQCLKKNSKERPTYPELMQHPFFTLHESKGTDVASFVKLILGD

[12] = biological target: Protein kinase C alpha type (Bos taurus, UniProt P04409); assay: Inhibition of PKCalpha kinase
Rattus norvegicus [13] = assay: Effect on collagen induced arthritis in rats at 25 mg/kg peroral dose twice daily over 10 days; type: functional; conditions: route oral
Rattus norvegicus [14] = assay: Effect on adjuvant induced arthritis in rats at 25 mg/kg peroral dose twice daily over 10 days; type: functional; conditions: 240 h, route oral
[15] = biological target: Tyrosine-protein kinase ABL1 (Mus musculus, UniProt P00520); assay: Inhibition of c-abl kinase
Tyrosine-protein kinase ABL1, sequence (P00520 whole entry): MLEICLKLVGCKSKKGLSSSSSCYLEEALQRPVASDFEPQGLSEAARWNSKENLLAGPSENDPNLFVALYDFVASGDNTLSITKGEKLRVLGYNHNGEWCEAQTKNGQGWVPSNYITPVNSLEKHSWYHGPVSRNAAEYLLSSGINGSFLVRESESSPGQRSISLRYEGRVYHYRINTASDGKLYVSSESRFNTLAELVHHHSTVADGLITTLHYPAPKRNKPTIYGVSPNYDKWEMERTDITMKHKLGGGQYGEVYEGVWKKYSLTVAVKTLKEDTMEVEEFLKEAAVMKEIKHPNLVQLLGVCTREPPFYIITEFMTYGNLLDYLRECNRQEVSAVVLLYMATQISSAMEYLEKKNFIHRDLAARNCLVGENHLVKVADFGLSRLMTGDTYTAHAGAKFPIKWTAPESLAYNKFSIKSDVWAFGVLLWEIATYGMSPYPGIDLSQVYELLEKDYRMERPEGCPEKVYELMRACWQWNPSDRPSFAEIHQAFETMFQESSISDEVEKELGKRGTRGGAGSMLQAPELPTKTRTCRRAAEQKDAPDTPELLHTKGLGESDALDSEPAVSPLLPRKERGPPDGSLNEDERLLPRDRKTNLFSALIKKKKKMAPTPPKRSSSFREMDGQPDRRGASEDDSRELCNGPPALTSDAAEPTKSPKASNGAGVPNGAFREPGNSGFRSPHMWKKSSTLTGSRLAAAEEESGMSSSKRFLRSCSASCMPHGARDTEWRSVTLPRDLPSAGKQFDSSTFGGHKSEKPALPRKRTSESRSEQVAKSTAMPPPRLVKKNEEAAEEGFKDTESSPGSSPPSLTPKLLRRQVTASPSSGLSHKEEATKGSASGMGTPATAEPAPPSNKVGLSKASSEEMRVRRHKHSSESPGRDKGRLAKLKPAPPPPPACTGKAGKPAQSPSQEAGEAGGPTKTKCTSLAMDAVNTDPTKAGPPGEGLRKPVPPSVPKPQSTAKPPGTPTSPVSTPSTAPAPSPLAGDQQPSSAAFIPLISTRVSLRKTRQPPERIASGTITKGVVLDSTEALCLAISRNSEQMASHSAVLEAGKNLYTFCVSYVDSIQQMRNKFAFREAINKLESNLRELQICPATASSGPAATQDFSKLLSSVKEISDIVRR

[16] = biological target: Proto-oncogene tyrosine-protein kinase Src (Gallus gallus, UniProt P00523); assay: Inhibition of c-src kinase
[17] = biological target: Mitogen-activated protein kinase 11 (Homo sapiens, UniProt Q15759); assay: Inhibition of human p38 beta MAP kinase
Mitogen-activated protein kinase 11, sequence (Q15759 whole entry): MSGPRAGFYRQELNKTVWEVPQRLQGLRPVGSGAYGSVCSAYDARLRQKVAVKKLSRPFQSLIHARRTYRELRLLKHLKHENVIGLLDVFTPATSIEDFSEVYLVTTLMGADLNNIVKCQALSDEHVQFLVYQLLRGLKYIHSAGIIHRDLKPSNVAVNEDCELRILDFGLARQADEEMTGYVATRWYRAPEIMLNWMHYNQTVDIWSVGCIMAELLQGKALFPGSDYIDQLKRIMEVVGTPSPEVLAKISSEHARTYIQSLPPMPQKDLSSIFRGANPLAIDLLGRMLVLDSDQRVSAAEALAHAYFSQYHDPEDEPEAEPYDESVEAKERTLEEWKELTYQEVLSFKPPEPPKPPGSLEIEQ

[18] = biological target: T3, Mitogen-activated protein kinase 13 (Homo sapiens, UniProt O15264); assay: Inhibition of human p38 delta MAP kinase
T3 sequence (O15264 whole entry): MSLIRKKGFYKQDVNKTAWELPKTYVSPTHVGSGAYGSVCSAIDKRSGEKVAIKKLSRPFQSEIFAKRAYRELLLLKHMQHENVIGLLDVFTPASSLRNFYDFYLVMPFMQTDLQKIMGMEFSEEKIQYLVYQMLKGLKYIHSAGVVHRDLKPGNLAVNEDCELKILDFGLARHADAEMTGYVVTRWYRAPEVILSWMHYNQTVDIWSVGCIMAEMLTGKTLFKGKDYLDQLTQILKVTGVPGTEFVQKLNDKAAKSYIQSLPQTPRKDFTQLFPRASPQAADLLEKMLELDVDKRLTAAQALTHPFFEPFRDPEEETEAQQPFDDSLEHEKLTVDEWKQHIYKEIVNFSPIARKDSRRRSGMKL

Mitogen-activated protein kinase 14, sequence (P47811 whole entry): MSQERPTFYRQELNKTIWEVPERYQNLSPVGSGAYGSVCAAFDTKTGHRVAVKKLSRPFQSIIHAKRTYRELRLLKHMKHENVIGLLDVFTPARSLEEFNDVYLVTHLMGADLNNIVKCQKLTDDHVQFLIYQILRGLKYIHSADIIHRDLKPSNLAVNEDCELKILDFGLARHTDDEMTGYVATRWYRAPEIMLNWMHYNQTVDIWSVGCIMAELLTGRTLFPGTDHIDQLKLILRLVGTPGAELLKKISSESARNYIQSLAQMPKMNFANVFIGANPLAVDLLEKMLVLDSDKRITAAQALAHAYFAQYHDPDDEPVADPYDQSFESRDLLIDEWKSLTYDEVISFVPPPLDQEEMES

IC50 [1] [nM] | IC50 [2] [nM] | SMILES | IC50 (Mus musculus [3]) [nM] | inhibition in vivo at 20 mg/kg (Mus musculus [4]) [%] | further results
470 | 87000 | CC(C)(O)c1nc(-c2ccncc2)c(-c2ccc(F)cc2)[nH]1 |  |  | 
450 | 5000 | CC(C)(C)c1nc(-c2ccncc2)c(-c2ccccc2)[nH]1 |  |  | 
130 | > 100000 | CN1CCC(O)(c2cc(-c3ccncc3)c(-c3ccc(F)cc3)[nH]2)CC1 | 125 | 18 | 
80 | 3000 | OC1(c2nc(-c3ccncc3)c(-c3ccc(F)cc3)[nH]2)CCCC1 |  |  | 
2000 |  | CN1CCC(O)(c2nc(-c3ccncc3)c(-c3ccc(F)cc3)o2)CC1 |  |  | 
450 | 73000 | CN1CCC(O)(c2nc(-c3ccc(F)cc3)c(-c3ccncc3)s2)CC1 | 145 | 0 | 
150 | 20000 | OC1(c2nc(-c3ccncc3)c(-c3ccc(F)cc3)[nH]2)CCC1 |  |  | 
76 | 200 | OC1(c2nc(-c3ccncc3)c(-c3ccc(F)cc3)[nH]2)CCCCCC1 |  |  | 
20 | 40000 | OC1(c2nc(-c3ccncc3)c(-c3ccc(F)cc3)[nH]2)CC1 |  |  | 
120 | 6300 | OC1(c2nc(-c3ccncc3)c(-c3ccc(F)cc3)[nH]2)CCCCC1 |  |  | 

SMILES | IC50 [1] [nM] | IC50 [2] [nM] | IC50 (Mus musculus [3]) [nM] | inhibition in vivo at 20 mg/kg (Mus musculus [4]) [%] | further results
CN1CCC(O)(c2nc(-c3ccc(F)cc3)c(-c3ccncc3)o2)CC1 | 350 | > 100000 | 180 | 50 | Cmax [5]: 1960 nM; bioavailability [6]: 65%; IC50 [7]: 797 nM; IC50 [8]: > 10000 nM; IC50 [9]: 8090 nM; IC50 [10]: > 10000 nM; IC50 [11]: > 100000 nM; IC50 [12]: 51100 nM; ED50 (Rattus norvegicus [13]): 20 mg/kg/day; inhibition in vivo at 25 mg/kg (Rattus norvegicus [14]): 40%; IC50 [15]: 86800 nM; IC50 [16]: 22700 nM; IC50 [17]: 2410 nM; IC50 [18]: > 10000 nM
CN1CCC(O)(c2nc(-c3ccc(F)cc3)c(-c3ccncc3)[nH]2)CC1 | 90 | > 100000 | 15 | 77 | Cmax [5]: 400 nM; bioavailability [6]: 23%; inhibition in vivo at 25 mg/kg (Rattus norvegicus [14]): 23%
